The target of data set [1] is T1, transcription factor KLF5 (PDGF-A promoter activation under overexpression of RARα) (Homo sapiens, UniProt Q13887).
T1 construct: expressed in transfected cells; host or cells: COS1 cells
As to the kind of experiment: Luciferase assay of KLF5-dependent PDGF-A promoter activation, COS1 cells cotransfected with KLF5 and RARα. The format is cell-based. On the procedure:
COS1 cells were seeded on a 24-well plate at a ratio of 5×10^4 cells/well and cultured at 37° C. in a 5% CO2 incubator for 12 hours. Transfection was performed by using TransFast (registered trade name, Promega) transfection reagent according to the protocol attached to the reagent. Specifically, the cells were added with pCAG/KLF5 or empty vector thereof (pCAG), pCMX/RARα or empty vector thereof (pCMX) and PDGF-A promoter (−900)-Luciferase and cultured at 37° C. in a 5% CO2 incubator for 48 hours. NIK-333 was dissolved in dimethyl sulfoxide (DMSO), and added at 10^−7 to 10^−5 M. Then, a luciferase assay was performed by using Dual Luciferase Reporter Assay System (Promega). In contrast to the transfection of the empty vector for KLF5 and the empty vector for RARα (Lane 1), the transfection of the KLF5 gene alone (Lane 2) and transfection of the RARα gene alone (Lane 3), the transfection of the KLF5 and RARα genes (Lane 4) activated the PDGF-A promoter. This KLF5-dependent PDGF-A promoter activation action under overexpression of RARα was inhibited by NIK-333 (Lanes 5 to 7).
(§1) COS1 cells were seeded on a 24-well plate at a rate of 5×10^4 cells/well and cultured overnight at 37° C. in a 5% CO2 incubator. Transfection was performed by using TransFast (registered trade name, Promega) transfection reagent according to the protocol attached to the reagent. Specifically, the cells were added with pCAG/KLF5 or empty vector thereof (pCAG), pRSh/RARα, pRSh/RARβ, pRSh/RARγ or empty vector thereof (pRS-RSV) and PDGF-A promoter (−900)-Luciferase and cultured at 37° C. in a 5% CO2 incubator for 48 hours. NIK-333 was dissolved in dimethyl sulfoxide (DMSO); and added at 10^−12 to 10^−5 M. Then, a luciferase assay was performed by using Dual Luciferase Reporter Assay System (Promega). […] This KLF5-dependent PDGF-A promoter activation under overexpression of RARα was inhibited by NIK-333 (Lanes 5 to 12). […] On the other hand, it was noted that the KLF5-dependent PDGF-A promoter activation action under overexpression of RARβ was not affected by NIK-333.

Data set [2] addresses T2, transcription factor KLF5 (PDGF-A promoter activation under overexpression of RARγ) (Homo sapiens, UniProt Q13887).
T2 construct: expressed in transfected cells; host or cells: COS1 cells
The data set can be described thus: Luciferase assay of KLF5-dependent PDGF-A promoter activation, COS1 cells cotransfected with KLF5 and RARγ. It counts as cell-based. The following applies: Example 1-2. On the procedure: as §1

For data set [3], the target named is T3, transcription factor KLF5 (PDGF-A promoter activation under overexpression of RARβ) (Homo sapiens, UniProt Q13887).
T3 construct: expressed in transfected cells; host or cells: COS1 cells
T3 sequence (Q13887 whole entry): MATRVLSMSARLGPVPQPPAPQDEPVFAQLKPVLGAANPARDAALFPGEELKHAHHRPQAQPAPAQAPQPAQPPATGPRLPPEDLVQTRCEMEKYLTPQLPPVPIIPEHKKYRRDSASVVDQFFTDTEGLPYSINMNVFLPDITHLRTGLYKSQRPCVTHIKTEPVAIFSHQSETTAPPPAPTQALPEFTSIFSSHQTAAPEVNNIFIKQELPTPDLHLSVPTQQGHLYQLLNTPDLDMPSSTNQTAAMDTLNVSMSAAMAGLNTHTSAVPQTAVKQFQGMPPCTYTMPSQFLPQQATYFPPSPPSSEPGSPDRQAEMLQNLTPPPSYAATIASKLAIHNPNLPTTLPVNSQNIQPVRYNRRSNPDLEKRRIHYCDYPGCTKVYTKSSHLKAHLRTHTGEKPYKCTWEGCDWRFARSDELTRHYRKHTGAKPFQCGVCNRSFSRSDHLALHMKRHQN
As to the kind of experiment: Luciferase assay of KLF5-dependent PDGF-A promoter activation, COS1 cells cotransfected with KLF5 and RARβ. It counts as cell-based. The following applies: Example 1-2, FIG. 3. As for the experimental part: as §1

Data set [4] concerns Fibroblast-derived 3T3 cells. The data set can be described thus: Cell growth of fibroblast 3T3 (living cell count). It counts as cell-based. On the procedure:
Fibroblast-derived 3T3 cells were seeded on a 24-well plate at a rate of 1×10^6 cells/well and left for 12 hours. Then, NIK-333 and ATRA were added at 10^−7 to 10^−4 M, and living cells were counted 24, 36 and 48 hours later. NIK-333 and ATRA were dissolved in DMSO.

The subject of data set [5] is vascular intimal hyperplasia resulted from vascular injury due to the cuff. The data set can be described thus: Mouse cuff-induced injury model, Example 3-1 (HE staining). The format is in vivo, C57BL6/N mice. To be noted: for I/M ratio: HE staining, 5 weeks after cuff. As for the experimental part: Vascular remodeling analysis was performed by using a cuff-induced injury model. Usefulness of this model in relation to vascular remodeling has been reported (Physiol. Genomics, 2, pp.13-30, 2000; Circulation, 104, pp.2716-2721, 2001; Circulation, 106, pp.847-853, 2002). For this experiment, 8-week old male C57BL6/N mice (10 animals/group) were used. In an amount of 50 mg/kg of NIK-333 dissolved in soybean oil was orally given once a day and every day from 7 days before placement of a cuff (placement of polyethylene tube around blood vessel) to the day before sacrifice. The control group received soybean oil alone in the same manner. After the 7-day pretreatment, the right femoral artery was covered with PE50 (polyethylene tube 50) as a cuff. The animals were sacrificed after 5 weeks. Blood was collected, and the cuff was removed under perfusion fixation via puncture of the left ventricle. For pathological evaluation, hematoxylin/eosin (HE) staining was performed. As a result, the ratio of I/M (intima/media) in vascular intimal hyperplasia resulted from vascular injury due to the cuff decreased in the NIK-333 treatment group compared with the control group.

For data set [6] the test system is unchanged. The data set can be described thus: Mouse cuff-induced injury model, Example 3-2 (EVG staining). The format is in vivo, C57BL6/N mice. The following applies: for I/M ratio (mean ± S.D.): EVG staining, 5 weeks after cuff; for ratio of I/M (intima/media) compared with the control group: Example 3-2. On the procedure:
Vascular remodeling analysis was performed by using a cuff-induced injury model. Usefulness of this model in relation to vascular remodeling has been reported (Physiol. Genomics, 2, pp.13-30, 2000; Circulation, 104, pp.2716-2721; Circulation, 106, pp.847-853, 2002). For this experiment, 8-week old male C57BL6/N mice (10 animals/group) were used. In an amount of 100 or 200 mg/kg of NIK-333 or 5 or 10 mg/kg of ATRA suspended in soybean oil was orally given once daily every day from 7 days before placement of a cuff (placement of polyethylene tube around blood vessel) to the day before sacrifice. The control group were received soybean oil alone in the same manner. After the 7-day pretreatment, the right femoral artery was covered with PE50 (polyethylene tube 50, outer diameter: 0.965 mm, length: about 1.5 mm) as a cuff. The animals were sacrificed after 5 weeks. Blood was collected, and the cuff was removed under perfusion fixation via puncture of the left ventricle. For pathological evaluation, Elastica van Gieson (EVG) staining was performed. As a result, the ratio of I/M (intima/media) in vascular intimal hyperplasia resulted from vascular injury due to the cuff decreased in the NIK-333 treatment groups compared with the control group.

Data set [7] is described as follows: Influence on mouse testes weight and body weight. It counts as in vivo, C57BL6/N mice. As for the experimental part: Eight-week old male C57BL6/N mice (10 animals/group) were used. In an amount of 50 mg/kg or 100 mg/kg of NIK-333 dissolved in soybean oil was orally given once daily every day for 5 weeks. The control group received soybean oil alone in the same manner. Body weights were measured after 5 weeks. The animals were sacrificed, then the testes were observed by visual observation, and the testes weights were measured.

The next data set relates to 3T3-KLF5 cells. As to the kind of experiment: Growth of cells with stable KLF5 (living cell count). The format is cell-based. The following applies: for living cell count: 10^−8 to 10^−5 M, 24 hours, serum-free, FIG. 5. On the procedure: (§2) “3T3-KLF5 cells”, cells in which KLF5 was stably expressed (obtained by subcloning cDNA of KLF5 in a 3×FLAG expression vector to prepare a construct of 3×FLAG-KLF5, then transfecting 3T3 cells with the construct, and culturing the transfectants in the presence of G418 for 2 weeks to clone G418 resistant cells, control cells not containing KLF5 which were prepared in the same manner are referred to as 3T3-mock cells), were seeded in DMEM medium containing 10% FBS and penicillin G/streptomycin at a rate of 1×10^5 cells/well (6-well plate) and cultured overnight at 37° C. in a 5% CO2 incubator, and then the medium was changed to DMEM medium containing penicillin G/streptomycin (serum-free). The cells were added with NIK-333 dissolved in DMSO after 2 hours, cultured for 24 hours, and then counted.

The test system of a further data set is 3T3-mock cells. As to the kind of experiment: Growth of control cells not containing KLF5 (living cell count). To be noted: for living cell count: 10^−8 to 10^−5 M, 24 hours, serum-free, FIG. 5. It counts as cell-based. On the procedure:
as §2

The conditions of data set [8]: clinical; N. Eng. J. Med., 334, pp.1561-1567, 1996; cited from earlier work.
The next data set concerns hepatoma recurrence. The following applies: clinical; long-term administration over one year; N. Eng. J. Med., 334, pp.1561-1567, 1996; cited from earlier work.
A further data set has as its system KLF5. To be noted: reporter assay using cells; Nature Medicine, 8, pp.856-863, 2002; cited from earlier work. (In general: A reporter such as luciferase makes a cellular process visible.)
The subject of data set [9] is neointimal formation in injured blood vessels. The following applies: administered to wild type mice; Nature Medicine, 8, pp.856-863, 2002; cited from earlier work.
[10] abbreviates: 50 mg/kg orally once daily for 5 weeks.
[11] abbreviates: 100 mg/kg orally once daily for 5 weeks.

SMILES strings stand for the structures.

T1 sequence (P10276 whole entry partner): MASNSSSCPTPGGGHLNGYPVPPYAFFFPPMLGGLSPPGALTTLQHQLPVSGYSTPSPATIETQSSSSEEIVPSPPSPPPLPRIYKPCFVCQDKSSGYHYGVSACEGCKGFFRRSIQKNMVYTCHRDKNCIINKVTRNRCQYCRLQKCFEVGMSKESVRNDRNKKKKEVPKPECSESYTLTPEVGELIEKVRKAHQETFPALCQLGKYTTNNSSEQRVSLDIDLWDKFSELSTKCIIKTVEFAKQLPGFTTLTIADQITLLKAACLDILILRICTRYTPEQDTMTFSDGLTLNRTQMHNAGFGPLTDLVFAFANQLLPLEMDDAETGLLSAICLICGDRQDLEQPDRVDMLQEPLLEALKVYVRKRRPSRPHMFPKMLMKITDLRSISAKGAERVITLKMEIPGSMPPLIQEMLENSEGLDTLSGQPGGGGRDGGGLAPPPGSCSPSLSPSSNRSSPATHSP
T1 sequence (Q13887 whole entry): as the sequence (Q13887 whole entry) above
T2 sequence (P13631 whole entry partner): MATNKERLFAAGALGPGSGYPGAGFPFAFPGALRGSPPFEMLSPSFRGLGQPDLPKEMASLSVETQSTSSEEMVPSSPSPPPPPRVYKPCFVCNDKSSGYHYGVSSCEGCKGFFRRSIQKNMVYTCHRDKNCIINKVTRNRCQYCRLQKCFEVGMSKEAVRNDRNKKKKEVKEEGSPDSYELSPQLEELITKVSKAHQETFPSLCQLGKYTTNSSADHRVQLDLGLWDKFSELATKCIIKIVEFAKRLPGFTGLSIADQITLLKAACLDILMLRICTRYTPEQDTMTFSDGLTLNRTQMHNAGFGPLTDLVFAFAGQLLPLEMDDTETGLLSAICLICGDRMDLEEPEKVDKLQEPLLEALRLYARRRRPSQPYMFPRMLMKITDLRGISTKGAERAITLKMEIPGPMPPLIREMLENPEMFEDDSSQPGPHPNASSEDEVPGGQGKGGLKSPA
T2 sequence (Q13887 whole entry): as the sequence (Q13887 whole entry) above

As for `CC(C)=CCC/C(C)=C/CC/C(C)=C/C=C/C(C)=C/C(=O)O` [NIK-333, (2E,4E,6E, 10E)-3,7,11,15-Tetramethyl-2,4,6,10,14-hexadecapentanoic acid], in data set [1] (Example 1-1, COS1 cells, 10^−7 to 10^−5 M, FIG. 1), the “KLF5-dependent PDGF-A promoter activation action under overexpression of RARα” value is recorded as “inhibited”. In data set [1] (Example 1-1, COS1 cells, RARα), the “concentration from which the action showed concentration dependency” value is ≥ 10^−7 M. In addition, the “KLF5-dependent PDGF-A promoter activation under overexpression of RARα” value in [1] (Example 1-2, COS1 cells, 10^−12 to 10^−5 M, FIG. 2) is “inhibited”. Moreover, the “concentration from which the inhibitory action was significantly concentration-dependent” value in data set [1] (Example 1-2, COS1 cells, RARα) was ≥ 10^−10 M. The “inhibitory action compared with ATRA” value in data set [1] (Example 1-2, RARα) is recorded as “more potent than that of all-trans-retinoic acid (ATRA)”; in data set [2] (RARγ), “more potent than that of ATRA”. Moreover, in [2] (COS1 cells, FIG. 3), the “KLF5-dependent activation of the PDGF-A promoter under overexpression of RARγ” value is “inhibited”. Moreover, in data set [3], the “KLF5-dependent PDGF-A promoter activation action under overexpression of RARβ” value is on record as “not affected”. Further, in data set [4] (3T3 cells), the “concentration from which cell growth was inhibited in a concentration dependent manner” value is ≥ 10^−7 M. Further, in [4] (3T3 cells, FIG. 4), the “cell growth inhibitory action compared with ATRA” value is “more potent than that of ATRA”. Further, the “cell growth of 3T3 cells (living cell count)” value in data set [4] (10^−7 to 10^−4 M, 24, 36 and 48 hours, FIG. 4) is reported as “inhibited cell growth in a concentration dependent manner”. In addition, the I/M ratio in data set [5] (50 mg/kg orally once a day) was found to be 0.87 ± 0.29; in data set [5] (100 mg/kg) it was 0.75 ± 0.31. The “ratio of I/M (intima/media) compared with the control group” value in [5] (NIK-333 treatment group, Example 3-1) was “decreased”; in data set [6] (NIK-333 100 or 200 mg/kg), “decreased”. Also, the entries for the “I/M ratio (mean ± S.D.)” value in data set [6] (100 mg/kg orally once daily) and in data set [6] (200 mg/kg orally once daily) were 0.38 ± 0.2 and 0.09 ± 0.1, respectively. Moreover, the figures for the Body weight in data set [7] (setting [10]) and in data set [7] (setting [11]) were 20.8 ± 0.3 g and 21.2 ± 0.3 g, respectively. The “Weight of both testes” value in data set [7] (setting [10]) came to 0.1465 ± 0.0043 g; in data set [7] (setting [11]), 0.1360 ± 0.0026 g. Also, the “body weight compared with the control group” value in data set [7] (50 or 100 mg/kg, 5 weeks) is “no difference was observed”. The “testes weight compared with the control group” value in data set [7] (50 or 100 mg/kg, 5 weeks) is “no difference was observed”. The “visual observation of the testes” value in [7] (50 or 100 mg/kg, 5 weeks) is listed as “no abnormal finding was observed”. For the same compound, the “action on living cell count compared with ATRA” value with 3T3-KLF5 cells (3T3-KLF5 cells) and in the data set with 3T3-mock cells was “more potent than that of ATRA” in each case. Further, the living cell count result in the data set on 3T3-KLF5 cells (3T3-KLF5 cells) and in the data set with 3T3-mock cells was “decrease of the living cell count was observed in a concentration-dependent manner” each time. Besides, the “survival rate of 3T3-KLF5 cells versus 3T3-mock cells” value with 3T3-KLF5 cells (after the addition of NIK-333) is given as “the survival rate of the 3T3-KLF5 cells was higher than that of the 3T3-mock cells”. Further, the “liver function failure and adverse side effects observed with other retinoids” value in data set [8] was “does not substantially induce”. Further, in the data set on hepatoma recurrence, the “recurrence of hepatoma after radical treatment” value is recorded as “significantly inhibited”.

Take `CC1(C)CCC(C)(C)c2cc(NC(=O)c3ccc(C(=O)O)cc3)ccc21` [Am80]: in the data set on KLF5, the “transcription of PDGF-A induced by KLF5” value is “inhibited”. The “neointimal formation in injured blood vessels” value in [9] was “inhibited”.

Take `CC1=C(/C=C/C(C)=C/C=C/C(C)=C/C(=O)O)C(C)(C)CCC1` [ATRA, all-trans-retinoic acid, reference compound]: the “I/M ratio (mean ± S.D.)” value in data set [6] (5 mg/kg orally once daily) came to 0.64 ± 0.3; in data set [6] (10 mg/kg orally once daily), 0.63 ± 0.2. Moreover, in data set [6] (ATRA 5 or 10 mg/kg), the “ratio of I/M (intima/media) compared with the control group” value is listed as “no difference was observed”. Moreover, the living cell count result with 3T3-KLF5 cells (3T3-KLF5 cells) and with 3T3-mock cells was “decrease of the living cell count was observed in a concentration-dependent manner” in each case.

The record behind these values is patent publication US20080021105A1, “Medicine Capable of Inhibiting Activation of Transcription Factor Klf5” (THE UNIVERSITY OF TOKYO, priority 2004, published 2008).
